Experiments:
[1] = cited from earlier work
[2] = Storage stability of the crystal form at 40° C. and 75% RH for six months, XRPD comparison (FIG. 5); type: physicochemical; details: stored at 40° C. and 75% RH for six months
Description: FIG. 5 is an X-ray powder diffraction (XRPD) comparison diagram of crystal form A of inositol nicotinate provided by the present invention stored for half a year at 40° C. and under the condition of 75% of relative humidity.
XRPD analysis: It was detected at room temperature using a Bruker D8 advance type diffractometer from German Brook Instrument Co., Ltd by Cu-Kα rays (λ=1.5418 Å), with a 2θ angle scanning from 3° to 40°, and the scanning speed was 0.2°/second.
The crystal form A of inositol nicotinate obtained in the above examples was stored under conditions of 40° C. and 75% RH for six months.

crystal form after storage (physical stability, XRPD comparison) [2] | SMILES | solubility in chloroform ([1]; chloroform) | solubility in ethanol ([1]; ethanol and other organic solvents) | solubility in dimethyl sulfoxide ([1]; hot dimethylformamide or dimethyl sulfoxide) | solubility in hot dimethylformamide ([1]; hot dimethylformamide) | solubility in water ([1]; water)
– | O=C(O[C@H]1[C@H](OC(=O)c2cccnc2)[C@@H](OC(=O)c2cccnc2)[C@H](OC(=O)c2cccnc2)[C@@H](OC(=O)c2cccnc2)[C@H]1OC(=O)c1cccnc1)c1cccnc1 [Inositol nicotinate, cis-1,2,3,5-trans-4,6-cyclohexanehexol niacinate] | very slightly soluble | insoluble | only soluble | only soluble | insoluble
has not changed | O=C(O[C@H]1[C@H](OC(=O)c2cccnc2)[C@@H](OC(=O)c2cccnc2)[C@H](OC(=O)c2cccnc2)[C@@H](OC(=O)c2cccnc2)[C@H]1OC(=O)c1cccnc1)c1cccnc1 [crystal form A of inositol nicotinate, cis-1,2,3,5-trans-4,6-cyclohexanehexol niacinate] | – | – | – | – | –
